Where two headings read alike, the source gives them in different places. Blank lines part the entries; values can stand above or below the molecule they belong to.
Experiments:
[1] = system: STAT1 S727 phosphorylation; experiment: Western blot of STAT1 S727 phosphorylation in 293-dKO cells; format: cell-based, human; settings: for Basal STAT1 S727 phosphorylation in dKO cells, effect of cytokines: 20 ng/mL EGF, 40 ng/mL TNFα, 1 h after 24 h serum starvation; for CDK8/19-independent STAT1 S727 phosphorylation in dKO 293 cells, effect of cytotoxic drugs: 3 h, 50 μM etoposide, 50 nM Taxol
Description: Cells were cultured in 60-mm dishes and treated under different conditions before being lysed in RIPA lysis buffer with protease/phosphatase inhibitor cocktail. The protein concentration of extracts was determined using the DC protein assay (Bio-Rad Laboratories). Protein samples (50 μg) were resolved on 4–12% Express-Plus PAGE gels in Tris-MOPS (SDS) running buffer (GenScript, Piscataway, NJ, USA), transferred to PVDF membranes and incubated at 4 °C overnight with primary antibodies STAT1 (sc-592, Santa Cruz Biotechnology, Dallas, TX, USA) and pSTAT1-Ser727 (#8826, Cell Signaling Technology, Danvers, MA, USA) followed by anti-rabbit (NA934, GE Healthcare, Chicago, IL, USA) secondary antibodies. Bands were visualized with Western Lighting Plus ECL detection reagent (Perkin Elmer, Waltham, MA, USA) using ChemiDoc Touch™ (Bio-Rad). Images were analyzed using ImageLab (Bio-Rad) and ImageJ (version 1.52p) software for protein signal quantification.

CDK19 [2] = molecular target: T1, CDK19 (Homo sapiens, UniProt Q9BWU1); experiment: Cell-based QPCR assay of CDK8/19-dependent gene expression, HEK293 CDK8 single-knockout (8KO) cells; design: CDK8 single-knockout (8KO); endogenous in cells; host or cells: HEK293 CDK8 knockout (8KO); settings: HEK293 8KO, 1 h pre-treatment, then 10 ng/mL TNFα 2 h
Target sequence in this assay (Q9BWU1 whole entry): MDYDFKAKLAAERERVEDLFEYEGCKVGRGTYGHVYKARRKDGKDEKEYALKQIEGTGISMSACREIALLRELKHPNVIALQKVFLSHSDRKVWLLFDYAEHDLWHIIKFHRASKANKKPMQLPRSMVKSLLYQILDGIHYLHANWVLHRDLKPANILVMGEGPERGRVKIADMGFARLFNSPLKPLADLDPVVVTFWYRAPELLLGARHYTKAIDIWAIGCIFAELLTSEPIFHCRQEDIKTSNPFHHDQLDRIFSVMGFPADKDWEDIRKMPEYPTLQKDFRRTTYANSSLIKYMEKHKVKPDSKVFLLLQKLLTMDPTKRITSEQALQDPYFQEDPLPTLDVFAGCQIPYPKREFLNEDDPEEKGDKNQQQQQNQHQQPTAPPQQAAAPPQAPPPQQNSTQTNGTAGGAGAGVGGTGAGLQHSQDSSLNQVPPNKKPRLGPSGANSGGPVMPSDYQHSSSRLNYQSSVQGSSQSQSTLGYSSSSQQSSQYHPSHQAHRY
Target sequence in this assay (P24863 whole entry partner): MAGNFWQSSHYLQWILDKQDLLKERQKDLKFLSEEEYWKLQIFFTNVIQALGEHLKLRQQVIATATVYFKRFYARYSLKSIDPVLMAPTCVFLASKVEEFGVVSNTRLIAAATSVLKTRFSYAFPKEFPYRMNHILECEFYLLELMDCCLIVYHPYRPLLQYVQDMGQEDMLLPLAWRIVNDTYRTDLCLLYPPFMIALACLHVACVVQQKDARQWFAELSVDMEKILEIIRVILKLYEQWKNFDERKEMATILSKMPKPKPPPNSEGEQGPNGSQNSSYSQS
Description: (§3) CDK8/CDK19 single knockout and double knockout derivatives of human embryonic kidney (HEK) 293 cells (ATCC CRL-1573) were generated as previously described [18]. All cells were cultured in DMEM (high-glucose) media supplemented with 10% fetal bovine serum (FBS) and Penicillin-Streptomycin-Glutamine (1×) at 37 °C with 5% CO2 and routinely confirmed to be free of mycoplasma.
(§4) Total RNA was extracted using RNAeasy Mini Kit (Qiagen, Germantown, MD, USA) and 1 µg of total RNA was used to generate cDNA using iScript cDNA synthesis kit (Bio-Rad Laboratories, Hercules, CA, USA). Gene expression was quantified using iTaq Universal SYBR green super mix using CFX384 Real-Time System (Bio-Rad).
(§5) The IC50 values for different inhibitors in inhibiting CDK8/19-dependent gene expression were calculated using a three-parameter least square (ordinary) fitting method with GraphPad Prism 7.0 (GraphPad Software, San Diego, CA, USA). The Kruskal–Wallis non-parametric ANOVA was used to compare gene expression levels under no-inhibitor conditions between wild-type cells and knockout derivatives (8KO, 19KO and dKO) with GraphPad Prism 7.0.
(§6) Cells were pre-treated with different concentrations of CDK8/19 inhibitors for 1 h and then 10 ng/mL TNFα, an inducer of transcription factor NFκB, which is potentiated by CDK8/19 [5], was added for 2 h before RNA extraction. QPCR was carried out to quantify CDK8/19-regulated expression of NFκB-inducible genes CXCL1 and CXCL8 and the basal expression of MYC.

CDK8 = CDK8 (Homo sapiens, UniProt P49336); experiment: Cell-based QPCR assay of CDK8/19-dependent gene expression, HEK293 CDK19 single-knockout (19KO) cells; design: CDK19 single-knockout (19KO); endogenous in cells; host or cells: HEK293 CDK19 knockout (19KO); settings: HEK293 19KO, 1 h pre-treatment, then 10 ng/mL TNFα 2 h
CDK8, sequence (P49336 whole entry): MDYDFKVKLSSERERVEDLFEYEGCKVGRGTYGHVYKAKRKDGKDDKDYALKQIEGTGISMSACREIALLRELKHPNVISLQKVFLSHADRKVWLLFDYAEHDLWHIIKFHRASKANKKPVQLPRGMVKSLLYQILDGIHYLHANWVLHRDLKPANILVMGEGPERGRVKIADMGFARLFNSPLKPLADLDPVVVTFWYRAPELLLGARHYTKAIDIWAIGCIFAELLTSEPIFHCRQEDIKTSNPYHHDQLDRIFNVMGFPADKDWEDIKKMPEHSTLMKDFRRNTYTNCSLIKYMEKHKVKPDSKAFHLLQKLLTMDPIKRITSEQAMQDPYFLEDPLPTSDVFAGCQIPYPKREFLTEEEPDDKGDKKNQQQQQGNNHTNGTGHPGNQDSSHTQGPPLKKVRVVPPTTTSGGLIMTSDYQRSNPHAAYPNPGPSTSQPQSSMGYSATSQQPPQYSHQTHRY
CDK8, sequence (P24863 whole entry partner): as the sequence (P24863 whole entry partner) above
Description: as §3, §4, §5, §6

CDK8/19 [3] = experiment: Wash-off study: stability of inhibition of CDK8/19-dependent gene expression in 293 cells; format: cell-based, human; settings: 30 nM, 3 h, then drug-free media
Excerpt: We then asked if such toxicity could be associated with the stability of CDK8/19 inhibition. […] Then the drug-containing media were removed, cells were washed twice with PBS and cultured in fresh drug-free media for different periods of time before being lysed for RNA extraction and QPCR analysis of mRNA expression of MYC, JUN and ADAMTS1.

CDK8/19 [4] = experiment: Cell-based QPCR assay of CDK8/19-dependent gene expression, HEK293 parental (WT) cells; design: species or system human
Description: All cells were cultured in DMEM (high-glucose) media supplemented with 10% fetal bovine serum (FBS) and Penicillin-Streptomycin-Glutamine (1×) at 37 °C with 5% CO2 and routinely confirmed to be free of mycoplasma.
as §4
The IC50 values for different inhibitors in inhibiting CDK8/19-dependent gene expression were calculated using a three-parameter least square (ordinary) fitting method with GraphPad Prism 7.0 (GraphPad Software, San Diego, CA, USA).
as §6

[5] = system: non-dechorionated embryos of zebrafish TU strain; experiment: Zebrafish toxicity assay, non-dechorionated embryos (TU strain); format: in vivo; settings: 2 μM; TU strain
Description: The toxicity studies in non-dechorionated embryos of zebrafish TU strain were approved by the Institutional Animal Care and Use Committee of the University of South Carolina. The studies were conducted in sterile 24-well plates with one 24 hpf embryo in each well in a 1 mL volume of egg water. For each plate, 6 wells were treated with vehicle control and the other 18 wells (i.e., biological replicates) were treated with different CDK8/19 inhibitors at different concentrations. […] All the data from the plates with at least five healthy vehicle-treated embryos on day 5 were compiled together for final data analysis.

PIKFYVE [6] = molecular target: T2, PIKFYVE (Homo sapiens, UniProt Q9Y2I7); experiment: KdELECT Kd determination, PIKFYVE; design: purchased DiscoverX; settings: 11-point 3-fold serial dilution, duplicate; read-out: Kd for the inhibition of nucleotide binding, PIKFYVE
T2 sequence (Q9Y2I7 whole entry): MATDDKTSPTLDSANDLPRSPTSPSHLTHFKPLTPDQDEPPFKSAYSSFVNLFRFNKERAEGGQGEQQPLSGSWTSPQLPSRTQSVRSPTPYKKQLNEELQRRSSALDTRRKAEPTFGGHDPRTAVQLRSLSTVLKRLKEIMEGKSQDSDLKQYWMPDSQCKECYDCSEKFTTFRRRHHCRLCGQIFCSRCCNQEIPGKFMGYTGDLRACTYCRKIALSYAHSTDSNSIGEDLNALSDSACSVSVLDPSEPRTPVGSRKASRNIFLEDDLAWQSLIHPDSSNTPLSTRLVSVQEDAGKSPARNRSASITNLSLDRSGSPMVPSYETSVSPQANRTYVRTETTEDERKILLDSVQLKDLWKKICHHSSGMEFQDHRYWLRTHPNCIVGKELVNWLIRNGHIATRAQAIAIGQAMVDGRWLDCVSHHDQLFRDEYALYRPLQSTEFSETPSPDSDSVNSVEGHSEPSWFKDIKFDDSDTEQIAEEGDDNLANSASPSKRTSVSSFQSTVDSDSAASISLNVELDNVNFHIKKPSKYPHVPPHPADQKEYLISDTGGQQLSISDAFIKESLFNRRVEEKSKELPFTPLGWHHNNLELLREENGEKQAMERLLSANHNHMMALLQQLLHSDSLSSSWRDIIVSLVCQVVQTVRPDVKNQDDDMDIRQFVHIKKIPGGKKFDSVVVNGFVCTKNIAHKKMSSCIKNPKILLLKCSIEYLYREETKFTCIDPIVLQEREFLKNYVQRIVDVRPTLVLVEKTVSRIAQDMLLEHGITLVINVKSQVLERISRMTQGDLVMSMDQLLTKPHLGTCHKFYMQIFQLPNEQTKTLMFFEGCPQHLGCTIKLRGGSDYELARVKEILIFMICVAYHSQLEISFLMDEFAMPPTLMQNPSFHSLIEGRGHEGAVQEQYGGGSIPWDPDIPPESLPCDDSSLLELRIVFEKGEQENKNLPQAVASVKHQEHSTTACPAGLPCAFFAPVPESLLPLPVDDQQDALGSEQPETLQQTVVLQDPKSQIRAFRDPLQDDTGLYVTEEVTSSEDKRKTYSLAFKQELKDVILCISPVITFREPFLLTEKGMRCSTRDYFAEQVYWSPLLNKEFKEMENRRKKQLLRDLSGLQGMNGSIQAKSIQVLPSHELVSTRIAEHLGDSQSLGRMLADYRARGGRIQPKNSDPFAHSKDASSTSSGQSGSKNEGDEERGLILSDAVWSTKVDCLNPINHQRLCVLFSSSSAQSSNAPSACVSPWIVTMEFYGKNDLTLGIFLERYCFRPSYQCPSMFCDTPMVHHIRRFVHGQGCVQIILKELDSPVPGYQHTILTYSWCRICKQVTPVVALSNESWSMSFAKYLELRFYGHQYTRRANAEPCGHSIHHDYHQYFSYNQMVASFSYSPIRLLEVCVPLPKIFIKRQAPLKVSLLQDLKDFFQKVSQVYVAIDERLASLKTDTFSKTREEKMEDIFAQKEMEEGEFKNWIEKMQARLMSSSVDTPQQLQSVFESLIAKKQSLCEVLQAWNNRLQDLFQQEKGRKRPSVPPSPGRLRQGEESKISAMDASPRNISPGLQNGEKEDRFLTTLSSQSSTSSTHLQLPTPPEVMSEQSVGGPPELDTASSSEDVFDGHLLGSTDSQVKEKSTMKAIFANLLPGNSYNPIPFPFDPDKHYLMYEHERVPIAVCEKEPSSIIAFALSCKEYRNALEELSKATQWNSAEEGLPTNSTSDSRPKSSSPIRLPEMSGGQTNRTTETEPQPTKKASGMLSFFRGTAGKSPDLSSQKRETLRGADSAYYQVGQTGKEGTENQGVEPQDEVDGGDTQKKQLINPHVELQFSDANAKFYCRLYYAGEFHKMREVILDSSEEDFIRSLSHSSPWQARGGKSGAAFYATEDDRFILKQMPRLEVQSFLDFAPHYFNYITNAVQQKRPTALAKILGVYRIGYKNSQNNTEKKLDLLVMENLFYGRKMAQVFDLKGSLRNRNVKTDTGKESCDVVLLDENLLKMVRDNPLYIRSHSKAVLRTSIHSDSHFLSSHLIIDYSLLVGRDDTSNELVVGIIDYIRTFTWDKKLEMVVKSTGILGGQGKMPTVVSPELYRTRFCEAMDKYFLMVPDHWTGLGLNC
Description: (§1) The screening platform employs an active site-directed competition binding assay to quantitatively measure interactions between test compounds and targeting kinases. […] To determine dissociation constants (Kds) of compounds on different targets, an 11-point 3-fold serial dilution of each test compound was tested in independent duplicate assays.
(§2) This assay has been previously used with many CDK8/19 inhibitors, including cortistatin A and its equipotent analog dCA [20, 21]; 15w.

rats = settings: cited from earlier work
[7] = design: method as in PMID 26796641; settings: mice, 30 mg/kg/d; cited from earlier work
CDK19 [8] = molecular target: T1, CDK19; experiment: KdELECT Kd determination, CDK19; format: binding; design: purchased DiscoverX
Description: To determine dissociation constants (Kds) of compounds on different targets, an 11-point 3-fold serial dilution of each test compound was tested in independent duplicate assays.
Target sequence in this assay (Q9BWU1 whole entry): as the sequence (Q9BWU1 whole entry) above

STK16 = molecular target: T3, STK16 (Homo sapiens, UniProt O75716); experiment: KdELECT Kd determination, STK16; settings: 11-point 3-fold serial dilution, duplicate; read-out: Kd for the inhibition of nucleotide binding, STK16
T3 construct: purchased DiscoverX
T3 sequence (O75716 whole entry): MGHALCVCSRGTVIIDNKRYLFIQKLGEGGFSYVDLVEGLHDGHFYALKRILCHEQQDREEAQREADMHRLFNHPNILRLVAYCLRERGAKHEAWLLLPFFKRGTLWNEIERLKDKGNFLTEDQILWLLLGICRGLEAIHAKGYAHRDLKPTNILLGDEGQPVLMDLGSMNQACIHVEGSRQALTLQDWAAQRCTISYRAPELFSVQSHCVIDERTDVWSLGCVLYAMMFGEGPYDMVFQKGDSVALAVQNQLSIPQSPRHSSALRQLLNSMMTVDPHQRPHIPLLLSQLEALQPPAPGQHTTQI
Description: as §1, §2

JNK1 (MAPK8) = molecular target: T4, JNK1 (MAPK8) (Homo sapiens, UniProt P45983); experiment: KdELECT Kd determination, JNK1; settings: 11-point 3-fold serial dilution, duplicate; read-out: Kd for the inhibition of nucleotide binding, JNK1 (MAPK8)
T4 construct: purchased DiscoverX
T4 sequence (P45983 whole entry): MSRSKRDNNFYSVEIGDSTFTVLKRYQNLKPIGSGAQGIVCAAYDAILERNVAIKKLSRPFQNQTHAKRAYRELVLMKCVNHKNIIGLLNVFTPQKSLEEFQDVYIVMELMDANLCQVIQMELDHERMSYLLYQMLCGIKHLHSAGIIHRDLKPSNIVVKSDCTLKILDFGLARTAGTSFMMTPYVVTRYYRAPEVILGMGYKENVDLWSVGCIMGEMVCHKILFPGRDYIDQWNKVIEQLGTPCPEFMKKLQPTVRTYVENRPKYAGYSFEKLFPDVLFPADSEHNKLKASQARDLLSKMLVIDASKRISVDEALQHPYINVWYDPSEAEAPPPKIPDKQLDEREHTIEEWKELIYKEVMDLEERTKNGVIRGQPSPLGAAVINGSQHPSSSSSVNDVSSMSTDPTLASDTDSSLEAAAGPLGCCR
Description: as §1, §2

PIKFYVE [9] = molecular target: T2, PIKFYVE; experiment: Phase-contrast microscopy for intracellular large vesicular structures (PIKFYVE inhibition); format: cell-based; design: endogenous in cells; host or cells: HEK293-WT and HEK293-dKO; settings: 3 h; both WT and dKO 293 cells
Description: To evaluate PIKFYVE kinase inhibition, HEK293-WT and HEK293-dKO cells were treated with CDK8/19 inhibitors at different drug concentrations for 3 h. Phase-contrast microscopy was then used to detect the formation of intracellular large vesicular structures, associated with PIKFYVE inhibition.

[10] = design: method as in PMID 27935476; settings: colon cancer and leukemia mouse xenograft models; cited from earlier work
dogs = settings: cited from earlier work
[11] = IC50, CXCL1 mRNA expression, 8KO
[12] = IC50, CXCL8 mRNA expression, 8KO
[13] = read-out: IC50, CXCL1 mRNA expression, WT; HEK293 WT; 1 h pre-treatment, then 10 ng/mL TNFα 2 h; QPCR
[14] = read-out: IC50, CXCL8 mRNA expression, WT; HEK293 WT; 1 h pre-treatment, then 10 ng/mL TNFα 2 h; QPCR
[15] = read-out: IC50, MYC mRNA expression, WT; HEK293 WT; 1 h pre-treatment, then 10 ng/mL TNFα 2 h; QPCR

Molecule: TNFα
Basal STAT1 S727 phosphorylation in dKO cells, effect of cytokines [1]: increased

Molecule: CN(C)C1CC23CCC4(O2)C(=CCC2(C)C(c5ccc6ccncc6c5)=CCC24)C=C3C(O)C1O (stereo not drawn) [dCA, 16-didehydro-cortistatin A]
IC50 (CDK19 [2]; [11]): 1.1 nM
IC50 (CDK19 [2]; [12]): 0.8 nM
IC50 (CDK19 [2]; IC50, MYC mRNA expression, 8KO): 0.6 nM
IC50 (CDK8; IC50, CXCL1 mRNA expression, 19KO): 1.4 nM
IC50 (CDK8; IC50, CXCL8 mRNA expression, 19KO): 1 nM
IC50 (CDK8; IC50, MYC mRNA expression, 19KO): 0.5 nM
Stability of CDK8/19 inhibition after wash-off (MYC, JUN, ADAMTS1 mRNA) (CDK8/19 [3]): by far the most stable
IC50 (CDK8/19 [4]; [13]): 1.3 nM
IC50 (CDK8/19 [4]; [14]): 1.4 nM
IC50 (CDK8/19 [4]; [15]): 1.5 nM
Toxicity in zebrafish assays at higher concentrations [5]: moderate but significant toxicity

Molecule: COc1cc([C@@H]2c3cc4c(cc3[C@@H](O[C@@H]3O[C@@H]5CO[C@@H](C)O[C@H]5[C@H](O)[C@H]3O)[C@H]3COC(=O)[C@H]23)OCO4)cc(OC)c1O [etoposide]
CDK8/19-independent STAT1 S727 phosphorylation in dKO 293 cells, effect of cytotoxic drugs [1]: increased

Molecule: Cn1ncc2cc(-c3cnc(N)c(Cl)c3N3CCC4(CCNC4=O)CC3)ccc21 [Cmpd3]
IC50 (CDK19 [2]; [11]): 3.1 nM
IC50 (CDK19 [2]; [12]): 6.1 nM
IC50 (CDK19 [2]; IC50, MYC mRNA expression, 8KO): 0.9 nM
Kd (PIKFYVE [6]): 100 nM
Toxicity in rats (rats): multiple and striking toxicities, including lethality
Total plasma concentration after 1 h [7]: 14.1 µM
Total plasma concentration after 2 h [7]: 6.9 µM
Total plasma concentration after 6 h [7]: 0.8 µM
Kd (CDK19 [8]): 59 nM
Kd (STK16): 420 nM
Kd (JNK1 (MAPK8)): 390 nM
Formation of large vesicular structures inside cells (PIKFYVE [9]): caused the formation of large vesicular structures
Weight loss in mice [10]: detectable weight loss
IC50 (CDK8/19 [4]; [13]): 3.2 nM
IC50 (CDK8/19 [4]; [14]): 3.3 nM
IC50 (CDK8/19 [4]; [15]): 4.1 nM
Toxicity in dogs (dogs): multiple and striking toxicities, including lethality
Toxicity in zebrafish assays at higher concentrations [5]: moderate but significant toxicity

Molecule: EGF: Recombinant human epidermal growth factor (NSDSECPLSHDGYCLHDGVCMYIEALDKYACNCVVGYIGERCQYRDLKWWELR; UniProt P01133 971-1023, looked up)
Basal STAT1 S727 phosphorylation in dKO cells, effect of cytokines [1]: increased

IC50 (CDK19 [2]; read-out: IC50, CXCL1 mRNA expression, 8KO): 5.4 nM
IC50 (CDK19 [2]; read-out: IC50, CXCL8 mRNA expression, 8KO): 5.4 nM
IC50 (CDK19 [2]; read-out: IC50, MYC mRNA expression, 8KO): 6.2 nM
IC50 (CDK8; read-out: IC50, CXCL1 mRNA expression, 19KO): 5.2 nM
IC50 (CDK8; read-out: IC50, CXCL8 mRNA expression, 19KO): 4.2 nM
IC50 (CDK8; read-out: IC50, MYC mRNA expression, 19KO): 2.5 nM
Molecule: CN(C)C(=O)Cc1ccc(N2CCCN(c3ccnc4sc(C(N)=O)c(N)c34)CC2)cc1 [15w]
IC50 (CDK8/19 [4]; HEK293 WT; 1 h pre-treatment, then 10 ng/mL TNFα 2 h; QPCR; read-out: IC50, CXCL1 mRNA expression, WT): 6.1 nM
IC50 (CDK8/19 [4]; HEK293 WT; 1 h pre-treatment, then 10 ng/mL TNFα 2 h; QPCR; read-out: IC50, CXCL8 mRNA expression, WT): 5.5 nM
IC50 (CDK8/19 [4]; HEK293 WT; 1 h pre-treatment, then 10 ng/mL TNFα 2 h; QPCR; read-out: IC50, MYC mRNA expression, WT): 4 nM

Molecule: CC(=O)O[C@H]1C(=O)[C@@]2(C)[C@H]([C@H](OC(=O)c3ccccc3)[C@]3(O)C[C@H](OC(=O)[C@H](O)[C@@H](NC(=O)c4ccccc4)c4ccccc4)C(C)=C1C3(C)C)[C@]1(OC(C)=O)CO[C@@H]1C[C@@H]2O [Taxol]
CDK8/19-independent STAT1 S727 phosphorylation in dKO 293 cells, effect of cytotoxic drugs [1]: increased
